In one data set the test system is Min mouse. The data set can be described thus: Polyp number in Min mouse model. Type of data set: in vivo. How it is done: COMPOUND 4, COMPOUND 5, or vehicle was administrated in wild type and Min mice. COMPOUND 4 is also an analog of COMPOUND 1 (FIG. 1A). The numbers of polyp formed in small intestine and colon of these mice after various treatments were measured (Table 6).

Data set [1] in a line: Bioavailability study in mouse. Format: in vivo. The settings on record: i.v and p.o, 10 mg/kg, 20% Tween 80. The method, then:
(§1) Bioavailability of COMPOUND 3, COMPOUND 4 and COMPOUND 5 was studied in mouse and rat. All the compounds were administered (i.v and p.o, 10 mg/kg) using the same vehicle (i.e., 20% Tween 80).

A short description of data set [2]: Metabolism in human liver microsome (HPLC/MS). Type of data set: in vitro ADME. Particulars: 5 minutes to 1 hour. How it is done:
(§2) FIG. 10. Metabolism analysis of COMPOUND3 • A. The diode Array trace (upper panel) and the total ion current (lower panel) for COMPOUND3 and metabolites thereof in rat. • B. The diode Array trace (upper panel) and the total ion current (lower panel) for COMPOUND3 and metabolites thereof in human.
(§3) Metabolism of COMPOUND 3 was analyzed by incubating the compound with rat or human liver microsome for 5 minutes to 1 hour, fractioning extracts of treated microsome through HPLC and subjecting the fractions to MS analysis.

In another data set the test system is 293. Particulars: 293, Renal. The method, then:
(§4) Cytotoxicity of COMPOUND 3 (an analog of COMPOUND 1, FIG. 1A) and other anticancer therapeutics were measured using cancer cells with various origins.

A further data set deals with A549. Particulars: A549, Lung. How it is done: as §4
The test system of the next data set is PC3. The settings on record: PC3, Prostate. How it is done:
as §4

The subject of the next data set is MCF7. The settings on record: MCF7, Breast. The method, then: as §4
The next data set relates to HL60. The settings on record: HL60, Leukemia. How it is done:
as §4

For the next data set, the system named is RPM17951. The settings on record: RPM17951, Melanoma. The method, then: as §4
Data set [3] can be described thus: Metabolism in rat liver microsome (HPLC/MS). Format: in vitro ADME. The settings on record: 5 minutes to 1 hour. The method, then: as §2, §3
A short description of data set [4]: Bioavailability study in rat. Format: in vivo. Particulars: i.v and p.o, 10 mg/kg, 20% Tween 80. The method, then: as §1
Data set [5] has as its system nuclear β-catenin in SW480 cells. Put plainly: β-catenin immunofluorescence and western blot localization in SW480 cells. Format: cell-based, human. Particulars: data not shown. How it is done:
FIG. 4. COMPOUND 1 decreases nuclear β-catenin • A. β-catenin immunofluorescence microscopy. Log phase SW480 (left) and HCT116 (right) cells were fixed and stained with either anti-β-catenin red (upper panel, A) or anti-CBP (upper panel, B) green. The center panel represents the superimposed β-catenin and CBP in SW480 (left) and HCT116 (right) cells. […] 25 μg of total protein from the cell extracts of SW480 cells with or without 24 hr treatment of COMPOUND1 was used for detection of cytosolic and nuclear β-catenin.
Immunofluorescence was used to examine the localization of CBP and β-catenin in SW480 and HCT116 cells treated with COMPOUND 1 (25 μM) or control (0.5% DMSO). Cells at log phase were seeded and after 24 hours, the cells were treated with COMPOUND 1 or control. 24 hours post treatment, cells were fixed. The coverslips were incubated with antibodies raised against CBP (A-22) (Santa Cruz Biotechnology) and β-catenin (Transduction Laboratories), respectively. The slides were examined using a Nikon PCM 2000 Laser Scanning Confocal Microscope after the secondary antibodies conjugated to either FITC or TRITC (Jackson ImmunoResearch, Westgrove, Pa.) were applied.
The subcellular distribution of β-catenin and CBP was examined in order to determine whether the localization of either was affected by COMPOUND 1. […]

The structures appear in SMILES notation.

Regarding `CN1CC(=O)N2C(Cc3ccc(O)cc3)C(=O)N(Cc3ccc(F)cc3F)CC2N1C(=O)NCc1ccccc1` (stereo not shown) [COMPOUND 5], in the data set on Min mouse (Min mice, about 300 mpk), the “Effect on number of polyp compared to vehicle control” value is on record as “reduce the number of polyp”. Moreover, in the data set on Min mouse (Min mouse), the “Polyp Number (Mean + S.D.), Total” value amounted to 71.4 ± 23.0. Besides, in the data set with Min mouse (Min mouse, 100 mpk), the “Polyp Number (Mean + S.D.), Colon” value is recorded as 1.7 ± 1.5 and the “Polyp Number (Mean + S.D.), Small intestine” value stood at 69.2 ± 20.8. For the same compound, in the data set with Min mouse (Min mouse, 300 mpk), the “Polyp Number (Mean + S.D.), Colon” value came to 1.1 ± 1.2; the “Polyp Number (Mean + S.D.), Small intestine” value is 46.1 ± 17.1; the “Polyp Number (Mean + S.D.), Total” value was 47.0 ± 16.9. Further, the “% Inhibition vs. VH” value with Min mouse (Min mouse, 300 mpk, total polyp number vs. vehicle) was determined as 31%. In data set [1], this compound had a Bioavailability of about 0%.
Regarding `CN1CC(=O)N2C(Cc3ccc(O)cc3)C(=O)N(Cc3cccc4ccccc34)CC2N1C(=O)NCc1ccccc1` (stereo not shown) [COMPOUND 3], the Metabolites observed entry in [2] was “Several metabolites (e.g., M1, M2, M3) were observed”; in data set [3], “Several metabolites (e.g., M1, M2, M3) were observed”. The Cytotoxicity in the data set on 293 was determined as 0.731 µg/mL; in the data set on A549 it was 1.386 µg/mL; in the data set on PC3, 1.207 µg/mL; in the data set with MCF7, 7.355 µg/mL; in the data set on HL60 it was 1.243 µg/mL; with RPM17951, 0.936 µg/mL. The Bioavailability entry in data set [4] is on record as “about 24%”.
`CCC(=C/[C@H](C)C/C=C/C(C)=C/[C@@H](C)C(=O)[C@@H](C)[C@H](O)[C@@H](C)C/C(C)=C/C(=O)O)/C=C/[C@@H]1OC(=O)C=C[C@@H]1C` [leptomycin B, reference compound]: the “Effect of nuclear transport inhibitor on COMPOUND 1-induced β-catenin transport” value in data set [5] is recorded as “eliminated COMPOUND 1-induced cytoplasmic transport of β-catenin”.

The record behind these values is patent US7531320B2, “Modulation of β-catenin/TCF-activated transcription” (priority 2003, dated 2009).
